Results published in PubChem BioAssay (NCI).
“And” between values parts separate entries of the source, which are not always exact repeats. Equal values may be shown once.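 48-hour exposure; five concentrations; linearly interpolated endpoints. GI50 is the concentration that inhibits growth by half. TGI is the concentration that stops growth completely.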

Tests used:
Experiment in all cases: NCI anticancer screen, dose series, 48 h
[1] = tested on: BT-549 breast
[2] = tested on: MDA-MB-231 breast
[3] = tested on: MDA-MB-435
[4] = tested on: MCF7 breast
[5] = tested on: DMS 114 small cell lung
[6] = tested on: DMS 273 small cell lung
[7] = tested on: LXFL 529 NSCLC
[8] = tested on: KM20L2 colon
[9] = tested on: SNB-78 CNS
[10] = tested on: HOP-18 NSCLC

SMILES	GI50 [1]	TGI [1]	GI50 [2]	TGI [2]	GI50 [3]	TGI [3]	GI50 [4]	TGI [4]	TGI [5]	TGI [6]	TGI [7]	TGI [8]	TGI [9]	TGI [10]	GI50 [7]	GI50 [8]
CN(C)c1ccc(N=C(C#N)c2nc(N)nc(N3CCOCC3)n2)cc1	35 µM	> 100 µM	20.7 µM	50.5 µM	53.2 µM	> 100 µM										
COc1cc2c(cc1OCCCN1CCN(CCCOc3cc4c(cc3OC)C(=O)C3CCC[C@H]3C=N4)CC1)N=C[C@@H]1CCCC1C2=O (stereo partly specified)	1.7 µM	> 100 µM	8.44 µM	> 26.6 µM	5.89 µM	30.3 µM	1.44 µM	> 100 µM								
Cn1cc(-c2csc(-c3cn(C)c4ncccc34)n2)c2ccccc21	0.409 µM	26.2 µM	2.82 µM	37.8 µM	0.0414 µM	0.186 µM	0.322 µM	> 100 µM								
CC(=O)OCC1OC(n2cnc3c(I)nc(I)nc32)C(OC(C)=O)C1OC(C)=O (stereo unspecified)									13.1 µM	20.2 µM	26.1 µM	32.7 µM				
Nc1nccc(C#Cc2cncnc2Nc2ccc(OCc3cccc(F)c3)c(Cl)c2)n1	3.15 µM	9.62 µM	5.56 µM	13.1 µM	5.36 µM	> 23.8 µM	3.99 µM	8.25 µM								
Cc1cc(N(CCC#N)CCC#N)ccc1N=Nc1ccc([N+](=O)[O-])cc1									33 µM	44.4 µM		> 100 µM	> 100 µM			
CCN1N=CSC12C(=O)N(c1ccccc1)C(=O)N2c1ccccc1 (stereo unspecified)									> 100 µM		> 100 µM	> 100 µM	> 100 µM	> 100 µM		
C/C=C(\C)C(=O)O[C@@H]1C=CC(=O)O[C@H]1COC(=O)[C@H](C)O			13.7 µM	29.1 µM	15.2 µM	71.6 µM	4.53 µM	18.3 µM								
C#CCSc1nnnn1-c1ccc(Br)c(C)c1	48.7 µM	> 100 µM	35.8 µM	> 100 µM	17.9 µM	55.8 µM	28.4 µM	> 100 µM								
O=[N+]([O-])c1ccc(N=Nc2c(O)[nH]c3ccc(Br)cc23)c([N+](=O)[O-])c1											13.9 µM	13.4 µM	> 100 µM	4.69 µM		
O=S(=O)(Nc1ccc2ccc3cccc4ccc1c2c34)c1ccccc1		> 100 µM		> 100 µM		24.4 µM		> 100 µM								
CCOC(=O)C1=C(O)CSC1=Nc1ccc(N=C2SCC(O)=C2C(=O)OCC)cc1									59.6 µM	42.8 µM	57.9 µM	> 100 µM	> 100 µM			
C/C(=N\NC(=S)Nc1ccccc1)c1ccccn1	1.87 µM	13.9 µM	0.0309 µM	2.61 µM	0.67 µM	4.28 µM	0.0148 µM	11.8 µM								
C=C(CNCCc1ccc(O)cc1)[C@@H]1CC[C@]2(CO)CC[C@]3(C)[C@H](CC[C@@H]4[C@@]5(C)CCC(NCCO)C(C)(C)[C@@H]5CC[C@]43C)[C@@H]12 (stereo partly specified)	1.5 µM	3.15 µM	1.33 µM	2.74 µM	1.51 µM	2.97 µM	0.4 µM	1.76 µM								
Cn1cccc1C1CC(=O)N(CCC[Se]C#N)C1=O (stereo unspecified)					1.78 µM	3.48 µM	2.85 µM	14.6 µM								
Cn1cc(-c2nonc2-c2cn(C)c3ccc(Br)cc23)c2ccccc21	6.17 µM	> 100 µM	3.67 µM	> 100 µM			2.83 µM	> 100 µM								
CC1(C)OCC(C2OC(On3nnc4ccc(Cl)cc43)C3OC(C)(C)OC23)O1 (stereo unspecified)		> 100 µM		> 100 µM		> 100 µM		> 100 µM								
COc1cccc(C2C3=C(COC3=O)N(CCO)c3cc4c(cc32)CCC4)c1 (stereo unspecified)	0.0819 µM	1.19 µM	0.142 µM	1.07 µM	0.0131 µM	0.0334 µM	0.0193 µM	> 18.1 µM								
COC(=O)Oc1nn(C(=O)OC)c(=O)c2ccccc12 (tested in a mixture with another compound)				> 100 µM		> 100 µM		> 100 µM								
NC(=NCc1ccccc1)N/N=C\c1ccnc2ccccc12		18.6 µM		28.2 µM		23.9 µM		25.5 µM								
CCOC(=O)C12CN(C34CC5CC(CC(C5)C3)C4)CC(C(=O)OCC)(C1=O)C(c1ccccc1)OC2c1ccccc1 (stereo unspecified)									> 100 µM	> 100 µM	> 100 µM	> 100 µM	> 100 µM			
COc1ccc(C2=NN(c3ccc(S(N)(=O)=O)cc3)C(c3ccc(Cl)cc3)C2)c(O)c1 (stereo unspecified)	4.07 µM	13.6 µM	9.89 µM	27.4 µM	3.26 µM	13.8 µM	2.08 µM	8.66 µM								
COC(=O)CC(CC(=O)C(=O)OC)C(=O)OC (stereo unspecified)											> 100 µM	> 100 µM	> 100 µM			
COc1ccc(C(=O)Nc2ccccc2)cc1[N+](=O)[O-]									> 100 µM	> 100 µM	> 100 µM	> 100 µM	> 100 µM			
CCCCCNC(=O)C1C(=O)N(CCCCC)C(=O)/C1=N\N (stereo unspecified)											> 100 µM	> 100 µM	60 µM	> 100 µM		
CNS(=O)(=O)NN(C)S(=O)(=O)c1ccc(C)cc1									> 100 µM			> 100 µM				
O=C1c2cccnc2-c2nc(-c3ccccc3)cc3c2c1nc1ccccc13	5.15 µM	21.3 µM	4.33 µM	> 100 µM	1.53 µM	2.96 µM	1.09 µM	4.11 µM								

SMILES	GI50 [1]	TGI [1]	GI50 [2]	TGI [2]	GI50 [3]	TGI [3]	GI50 [4]	TGI [4]	TGI [5]	TGI [6]	TGI [7]	TGI [8]	TGI [9]	TGI [10]	GI50 [7]	GI50 [8]
CC[C@]12C=CCN3CC[C@]4(C(=C(C(=O)OC)C1)Nc1ccccc14)[C@@H]32	8.71 µM	21.6 µM	3.19 µM	13.3 µM	2.06 µM	5.63 µM	3.33 µM	13.1 µM								
COc1cc(-c2cn(-c3ccc(Cl)cc3)c(=O)n2-c2ccccc2)cc(OC)c1OC	> 92.1 µM	> 100 µM	32.9 µM	> 100 µM	> 100 µM	> 100 µM	> 53.5 µM	> 100 µM								
COc1ccc2c(c1)C(=O)/C(=C/c1ccc(OCC(=O)c3ccc(Cl)cc3)cc1)O2	18.4 µM	59.1 µM	17 µM	89.7 µM	22.9 µM	91.8 µM	28.3 µM	> 100 µM								
COC(=O)C1(C)CCc2c(ccc3ccccc23)C1=O (stereo unspecified)		64 µM		> 100 µM		> 100 µM		81.2 µM								
c1ccc(COc2ccc(Nc3ncnc4ccc(-c5ccco5)cc34)cc2)cc1	6.87 µM	> 25 µM	5.49 µM	13.7 µM	6.83 µM	22.3 µM	0.572 µM	> 13.5 µM								
Cc1ccc2c(c1)/C(=N\N=C/c1cn(C(C)C)c3ccccc13)C(=O)N2	3.58 µM	> 100 µM	1.25 µM	5.83 µM	2.16 µM	10.3 µM	0.504 µM	> 100 µM								
CC1OC(OC2C(OC3CCC4(C)C(CCC5(C)C4CC=C4C6CC(C)(C)CCC6(CO)C(O)CC45C)C3(C)C)OC(C(=O)O)C(OC3OC(COC4OC(CO)C(O)C(O)C4O)C(O)C(O)C3O)C2O)C(O)C(O)C1O (stereo unspecified)	1.15 µM	2.49 µM	10.8 µM	21.8 µM	4.34 µM	14.7 µM	11.4 µM	24.2 µM								
c1ccc(CNc2nc(Nc3ccc(-c4nc5ccccc5[nH]4)cc3)c3cn[nH]c3n2)cc1	2.03 µM	5.27 µM	2.11 µM	4.97 µM	1.97 µM	5.15 µM	1.95 µM	6.35 µM								
CC(=O)[CH-]C(=O)c1ccccc1.CC(=O)[CH-]C(=O)c1ccccc1.[O-]Cc1cccs1.[O-]Cc1cccs1.[Ti+4]											> 100 µM	> 100 µM			25.3 µM	19.8 µM
O=C(O)Cc1ccccc1		> 2000 µM	> 1000 µM	> 2000 µM		> 2000 µM		> 2000 µM								
Oc1ccc(-c2nc(-c3ccc(F)cc3)c(-c3ccncc3)[nH]2)cc1	17.7 µM	64 µM	11.2 µM	> 100 µM	6.8 µM	35.1 µM	19.4 µM	> 100 µM								
COc1cc2nc(-c3ccc(Cl)cc3)cc(OCCCN3CCC(O)CC3)c2cc1OC	2.79 µM	13.3 µM	0.665 µM	3.52 µM	2.05 µM	5.2 µM	1.6 µM	3.79 µM								
CCOC(=O)/C(=C/c1c(-c2ccccc2)[nH]c2ccccc12)C(=O)c1ccc(Cl)cc1	8.82 µM	> 100 µM	4.74 µM	> 100 µM	3.02 µM	> 100 µM	2.91 µM	> 100 µM								
Cn1cc(-c2ccc3c(c2)ncn3-c2ccc(CC(=O)Nc3cc(C(C)(C)C)on3)cc2)cn1	1.49 µM	13.2 µM	1.23 µM	3.6 µM	2.55 µM	> 100 µM	1.55 µM	> 52 µM								
CC1(C)CC(C2CC(C)(C)CC(C)(C)[C@H]2O)[C@@H](O)C(C)(C)C1 (stereo partly specified)									> 100 µM	> 100 µM	> 100 µM	> 100 µM				
O=[N+]([O-])c1ccc([I+]c2ccccc2)cc1	1.63 µM	8.12 µM and 3.09 µM	2.1 µM	12.9 µM and 4.9 µM	1.85 µM	23.3 µM and 4.33 µM	2.24 µM	10.3 µM and 8.25 µM								
CCN1C(=O)N(CC)C2C1NN=c1s/c(=C\c3ccc([N+](=O)[O-])cc3)c(=O)n12 (stereo unspecified)	1.55 µM	16.5 µM	1.42 µM	> 44.2 µM			0.315 µM	> 100 µM								
Cc1ccc(S(=O)(=O)OC(C=O)C(O)C(O)COC(c2ccccc2)(c2ccccc2)c2ccccc2)cc1 (stereo unspecified)									33.8 µM	37.9 µM	25.7 µM	27.4 µM				
CC1=C(C(=O)Nc2cc(F)c(F)cc2F)C(c2cccc([N+](=O)[O-])c2)C(C(=O)Nc2ccccc2C(F)(F)F)=C(C)N1 (stereo unspecified)									57 µM		53.1 µM	78.4 µM	59.2 µM			
COC(=O)C1(c2ccc(OC)cc2)NC(c2ccccc2)C2C(=O)N(c3ccc(OC)cc3)C(=O)C21 (stereo unspecified)									> 100 µM	> 100 µM	> 100 µM	> 100 µM	> 100 µM			
CCN(CC)c1ccc(/C=C/C2=[N+](C)c3ccccc3C2(C)C)cc1	0.226 µM	1.96 µM	0.701 µM	6.48 µM	0.288 µM	4.91 µM	0.307 µM	18.5 µM								
NCCCNCCCNc1nc2ccccc2c2[nH]c3ccccc3c12	1.05 µM	2.4 µM	0.142 µM	1.56 µM	0.581 µM	2.08 µM	0.00804 µM	1.85 µM								
S=c1nc(/C=C/c2ccc(Cl)c(Cl)c2)[nH][nH]1	31.3 µM	> 100 µM	79 µM	> 100 µM	86.7 µM	> 100 µM	> 100 µM	> 100 µM	0.12 µM	> 100 µM		> 100 µM				
C=C1CCC2C3(C)COC(c4cccc(Cl)c4)OC3CCC2(C)C1/C=C/C1=CCOC1=O (stereo unspecified)	6.21 µM	> 100 µM	6.84 µM	> 100 µM	9.68 µM	> 100 µM	3.8 µM	> 100 µM								
C[C@@H](Oc1cc(-n2cnc3ccc(OCC4CCN(C)CC4)cc32)sc1C(N)=O)c1ccccc1C(F)(F)F	1.37 µM	4.75 µM	0.144 µM	1.98 µM	0.039 µM	0.0959 µM	0.0651 µM	3.18 µM								
COc1cc2c(c(Br)c1N)-c1cc(Br)c(N)cc1C2=O	> 24.8 µM	> 100 µM	3.07 µM	> 81 µM	> 100 µM	> 100 µM	0.131 µM	> 100 µM								
O=C(/C=C/c1cccnc1)/C=C/c1cccnc1	1.73 µM	4.62 µM	2.05 µM	5.8 µM	1.78 µM	4.84 µM	0.379 µM	1.84 µM								
